Results reported in PMC7180948, “New Insights into 4-Anilinoquinazolines as Inhibitors of Cardiac Troponin I–Interacting Kinase (TNNi3K)” (Molecules, 2020).

How the values were obtained:
Test in all cases: biochemical
Design in all cases: KINOMEscan competition binding panel (Eurofins DiscoverX), single concentration, % inhibition
Conditions in all cases: read-out: 7 at 1 µM % inhibition
PIK3CA(H1047L) = PIK3CA(H1047L) (Homo sapiens, UniProt P42336, H1047L)
In short: (§1)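 Values come from single-concentration (1 µM) profiling in the Eurofins DiscoverX KINOMEscan competition-binding platform, which covers over 400 kinases.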

MST4 = target: T1, MST4 (Homo sapiens, UniProt Q9P289)
T1 construct: gene STK26
In short: as §1

MST1R = MST1R (Homo sapiens, UniProt Q04912)
In short: as §1

NEK10 = NEK10 (Homo sapiens, UniProt Q6ZWH5)
NEK10, sequence (Q6ZWH5 whole entry): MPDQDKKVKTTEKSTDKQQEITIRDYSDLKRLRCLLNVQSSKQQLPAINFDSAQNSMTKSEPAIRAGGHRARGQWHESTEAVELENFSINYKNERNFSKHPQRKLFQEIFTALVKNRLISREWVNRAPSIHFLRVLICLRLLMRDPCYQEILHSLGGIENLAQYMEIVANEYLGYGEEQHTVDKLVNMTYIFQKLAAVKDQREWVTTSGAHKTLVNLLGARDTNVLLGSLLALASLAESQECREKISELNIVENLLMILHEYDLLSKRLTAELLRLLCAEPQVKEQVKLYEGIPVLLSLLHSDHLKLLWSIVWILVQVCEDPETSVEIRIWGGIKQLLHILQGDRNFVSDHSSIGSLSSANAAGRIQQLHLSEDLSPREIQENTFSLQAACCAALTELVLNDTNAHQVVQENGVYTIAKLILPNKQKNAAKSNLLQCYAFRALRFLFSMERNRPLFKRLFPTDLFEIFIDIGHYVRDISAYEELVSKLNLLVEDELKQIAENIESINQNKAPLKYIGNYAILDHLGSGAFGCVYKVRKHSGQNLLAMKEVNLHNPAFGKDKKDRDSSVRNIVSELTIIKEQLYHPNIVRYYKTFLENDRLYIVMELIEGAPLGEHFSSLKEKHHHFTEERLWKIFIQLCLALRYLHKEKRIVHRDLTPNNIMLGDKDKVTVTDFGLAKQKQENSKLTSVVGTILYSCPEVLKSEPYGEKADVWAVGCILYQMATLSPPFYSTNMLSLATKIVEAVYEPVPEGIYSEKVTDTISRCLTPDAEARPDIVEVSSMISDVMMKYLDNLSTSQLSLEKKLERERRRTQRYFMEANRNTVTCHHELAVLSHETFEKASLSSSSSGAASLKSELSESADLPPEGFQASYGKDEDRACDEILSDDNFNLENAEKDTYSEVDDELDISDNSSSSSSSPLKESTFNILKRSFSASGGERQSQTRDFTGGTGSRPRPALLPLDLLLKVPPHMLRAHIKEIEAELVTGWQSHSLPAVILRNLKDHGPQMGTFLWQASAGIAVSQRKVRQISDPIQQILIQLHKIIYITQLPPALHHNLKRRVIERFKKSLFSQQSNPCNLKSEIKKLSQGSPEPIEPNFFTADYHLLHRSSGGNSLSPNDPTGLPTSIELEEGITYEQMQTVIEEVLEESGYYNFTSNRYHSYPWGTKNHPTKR
In short: as §1

CSNK1A1L = CSNK1A1L (Homo sapiens, UniProt Q8N752)
CSNK1A1L, sequence (Q8N752 whole entry): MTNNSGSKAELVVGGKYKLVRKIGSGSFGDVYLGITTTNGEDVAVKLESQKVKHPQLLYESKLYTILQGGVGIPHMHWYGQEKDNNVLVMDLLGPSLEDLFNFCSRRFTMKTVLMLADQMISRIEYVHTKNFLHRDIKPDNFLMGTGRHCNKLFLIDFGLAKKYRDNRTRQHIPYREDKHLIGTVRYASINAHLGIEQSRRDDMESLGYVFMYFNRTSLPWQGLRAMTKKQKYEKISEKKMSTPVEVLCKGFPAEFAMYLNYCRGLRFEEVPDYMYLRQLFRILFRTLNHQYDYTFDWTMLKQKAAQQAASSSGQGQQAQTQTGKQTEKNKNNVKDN
In short: as §1

GSK3A = GSK3A (Homo sapiens, UniProt P49840)
In short: as §1

MARK4 = MARK4 (Homo sapiens, UniProt Q96L34)
In short: as §1

MARK2 = MARK2 (Homo sapiens, UniProt Q7KZI7)
MARK2, sequence (Q7KZI7 whole entry): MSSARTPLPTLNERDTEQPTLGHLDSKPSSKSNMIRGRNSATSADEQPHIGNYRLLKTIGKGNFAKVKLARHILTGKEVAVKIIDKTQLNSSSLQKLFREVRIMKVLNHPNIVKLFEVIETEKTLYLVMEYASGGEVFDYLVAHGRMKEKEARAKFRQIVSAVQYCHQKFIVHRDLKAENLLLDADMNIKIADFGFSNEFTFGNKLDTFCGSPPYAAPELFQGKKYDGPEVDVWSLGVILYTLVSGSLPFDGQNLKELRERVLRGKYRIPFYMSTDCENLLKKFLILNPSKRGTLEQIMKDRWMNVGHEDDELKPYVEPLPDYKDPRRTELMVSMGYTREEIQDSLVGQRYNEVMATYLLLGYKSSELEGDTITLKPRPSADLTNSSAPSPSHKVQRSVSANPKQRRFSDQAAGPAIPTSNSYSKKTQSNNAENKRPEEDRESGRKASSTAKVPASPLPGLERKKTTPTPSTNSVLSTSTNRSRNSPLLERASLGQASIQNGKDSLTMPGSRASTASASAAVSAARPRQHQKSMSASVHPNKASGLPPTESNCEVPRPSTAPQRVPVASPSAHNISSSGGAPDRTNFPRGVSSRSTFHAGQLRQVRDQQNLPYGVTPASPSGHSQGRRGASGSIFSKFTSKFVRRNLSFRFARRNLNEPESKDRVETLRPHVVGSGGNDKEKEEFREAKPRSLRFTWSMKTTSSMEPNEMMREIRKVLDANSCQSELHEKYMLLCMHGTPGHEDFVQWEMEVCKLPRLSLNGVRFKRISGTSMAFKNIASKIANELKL
In short: as §1

PKN2 = PKN2 (Homo sapiens, UniProt Q16513)
In short: as §1

CAMKK2 = CAMKK2 (Homo sapiens, UniProt Q96RR4)
CAMKK2, sequence (Q96RR4 whole entry): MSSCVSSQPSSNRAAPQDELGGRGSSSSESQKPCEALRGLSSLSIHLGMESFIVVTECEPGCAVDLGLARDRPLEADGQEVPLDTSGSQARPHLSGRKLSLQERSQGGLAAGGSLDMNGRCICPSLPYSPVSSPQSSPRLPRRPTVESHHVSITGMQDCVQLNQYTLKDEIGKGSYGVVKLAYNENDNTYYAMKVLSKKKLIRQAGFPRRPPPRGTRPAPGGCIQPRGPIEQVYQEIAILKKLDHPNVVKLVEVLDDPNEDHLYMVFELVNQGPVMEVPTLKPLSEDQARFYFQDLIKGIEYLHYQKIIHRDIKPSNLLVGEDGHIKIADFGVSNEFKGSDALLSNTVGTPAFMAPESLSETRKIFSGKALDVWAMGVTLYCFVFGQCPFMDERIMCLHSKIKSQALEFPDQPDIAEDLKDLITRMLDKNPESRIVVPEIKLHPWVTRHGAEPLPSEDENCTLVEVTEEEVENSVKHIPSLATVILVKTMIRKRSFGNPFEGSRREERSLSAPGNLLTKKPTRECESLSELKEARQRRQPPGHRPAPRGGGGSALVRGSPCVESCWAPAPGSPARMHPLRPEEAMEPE
In short: as §1

PIP5K1C = PIP5K1C (Homo sapiens, UniProt O60331)
In short: as §1

[1] = target: T2, ABL1(E255K)-phosphorylated (Homo sapiens, UniProt P00519, E255K)
T2 construct: phosphorylated
In short: as §1

RET(V804M) = RET(V804M) (Homo sapiens, UniProt P07949, V804M)
In short: as §1

CDKL5 = CDKL5 (Homo sapiens, UniProt O76039)
In short: as §1

INSRR = INSRR (Homo sapiens, UniProt P14616)
In short: as §1

TAK1 = target: T3, TAK1 (Homo sapiens, UniProt O43318)
T3 construct: gene MAP3K7
T3 sequence (O43318 whole entry): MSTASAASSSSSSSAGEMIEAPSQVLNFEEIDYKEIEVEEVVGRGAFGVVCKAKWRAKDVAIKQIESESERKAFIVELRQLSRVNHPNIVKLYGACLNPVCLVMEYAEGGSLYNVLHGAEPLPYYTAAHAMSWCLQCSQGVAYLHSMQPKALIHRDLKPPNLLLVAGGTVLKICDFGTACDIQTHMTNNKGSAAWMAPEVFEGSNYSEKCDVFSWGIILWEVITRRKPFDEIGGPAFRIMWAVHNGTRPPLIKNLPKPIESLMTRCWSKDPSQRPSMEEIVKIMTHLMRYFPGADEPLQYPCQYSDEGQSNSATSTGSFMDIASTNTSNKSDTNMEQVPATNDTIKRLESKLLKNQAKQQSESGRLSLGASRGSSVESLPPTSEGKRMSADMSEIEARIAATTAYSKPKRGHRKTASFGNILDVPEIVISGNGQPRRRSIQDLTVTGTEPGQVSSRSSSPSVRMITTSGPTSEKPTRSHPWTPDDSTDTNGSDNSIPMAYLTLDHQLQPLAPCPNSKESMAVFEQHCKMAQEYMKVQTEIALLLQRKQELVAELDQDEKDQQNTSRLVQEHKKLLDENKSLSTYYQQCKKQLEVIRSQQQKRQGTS
In short: as §1

KIT(A829P) = KIT(A829P) (Homo sapiens, UniProt P10721, A829P)
KIT(A829P), sequence (P10721 whole entry A829P): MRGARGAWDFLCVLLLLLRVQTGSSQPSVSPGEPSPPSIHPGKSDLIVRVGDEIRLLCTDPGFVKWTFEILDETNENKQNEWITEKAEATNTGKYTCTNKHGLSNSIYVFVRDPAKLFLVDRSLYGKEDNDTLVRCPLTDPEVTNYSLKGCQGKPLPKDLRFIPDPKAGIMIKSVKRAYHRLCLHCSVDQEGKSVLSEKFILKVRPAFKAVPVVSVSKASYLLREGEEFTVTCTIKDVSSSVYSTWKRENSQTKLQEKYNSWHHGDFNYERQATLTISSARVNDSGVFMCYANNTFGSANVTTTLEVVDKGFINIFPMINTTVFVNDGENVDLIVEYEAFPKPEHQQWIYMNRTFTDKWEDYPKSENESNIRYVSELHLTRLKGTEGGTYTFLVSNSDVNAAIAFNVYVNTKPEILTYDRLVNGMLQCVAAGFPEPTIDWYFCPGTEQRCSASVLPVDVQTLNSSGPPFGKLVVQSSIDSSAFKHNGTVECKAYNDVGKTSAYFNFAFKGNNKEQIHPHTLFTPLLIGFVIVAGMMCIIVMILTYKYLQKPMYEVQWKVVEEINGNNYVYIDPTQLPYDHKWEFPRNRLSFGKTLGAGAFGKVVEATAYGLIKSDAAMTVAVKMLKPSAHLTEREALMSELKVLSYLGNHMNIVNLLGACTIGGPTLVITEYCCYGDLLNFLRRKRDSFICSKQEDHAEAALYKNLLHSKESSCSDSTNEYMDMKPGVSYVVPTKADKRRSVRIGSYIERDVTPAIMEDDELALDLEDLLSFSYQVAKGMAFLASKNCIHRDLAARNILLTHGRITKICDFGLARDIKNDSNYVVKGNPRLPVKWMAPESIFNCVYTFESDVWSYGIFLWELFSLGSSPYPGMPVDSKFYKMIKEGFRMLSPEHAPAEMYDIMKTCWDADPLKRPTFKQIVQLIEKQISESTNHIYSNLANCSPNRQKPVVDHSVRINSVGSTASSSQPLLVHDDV
In short: as §1

[2] = target: T4, ABL1(F317I)-phosphorylated (Homo sapiens, UniProt P00519, F317I)
T4 construct: phosphorylated
In short: as §1

CSNK1G2 = CSNK1G2 (Homo sapiens, UniProt P78368)
In short: as §1

FLT4 = FLT4 (Homo sapiens, UniProt P35916)
In short: as §1

[3] = target: T5, RPS6KA4(Kin.Dom.1-N-terminal) (Homo sapiens, UniProt O75676)
T5 construct: Kin.Dom.1-N-terminal
In short: as §1

NEK1 = NEK1 (Homo sapiens, UniProt Q96PY6)
In short: as §1

MST3 = target: T6, MST3 (Homo sapiens, UniProt Q9Y6E0)
T6 construct: gene STK24
T6 sequence (Q9Y6E0 whole entry): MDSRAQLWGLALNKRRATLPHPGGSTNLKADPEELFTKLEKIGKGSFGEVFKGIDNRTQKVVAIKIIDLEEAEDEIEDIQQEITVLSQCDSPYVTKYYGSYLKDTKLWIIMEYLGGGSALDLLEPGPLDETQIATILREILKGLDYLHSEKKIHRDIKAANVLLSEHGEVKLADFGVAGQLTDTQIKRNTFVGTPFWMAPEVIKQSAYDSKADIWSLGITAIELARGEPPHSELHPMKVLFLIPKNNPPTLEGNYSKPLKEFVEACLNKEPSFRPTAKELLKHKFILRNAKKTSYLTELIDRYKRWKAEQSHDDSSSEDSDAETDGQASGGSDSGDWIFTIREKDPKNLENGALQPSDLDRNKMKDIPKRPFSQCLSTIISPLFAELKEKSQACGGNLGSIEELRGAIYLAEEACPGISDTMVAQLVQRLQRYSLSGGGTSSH
In short: as §1

[4] = target: T7, RSK2(Kin.Dom.1-N-terminal) (Homo sapiens, UniProt P51812)
T7 construct: gene RPS6KA3; Kin.Dom.1-N-terminal
In short: as §1

Structure (SMILES): CNS(=O)(=O)c1ccc(N(C)C)c(Nc2ncnc3cc(OC)c(OC)cc23)c1 [compound 7, 3-((6,7-dimethoxyquinazolin-4-yl)amino)-4-(dimethylamino)-N-methylbenzenesulfonamide]
- inhibition at 1 µM (PIK3CA(H1047L)): 0%
- inhibition at 1 µM (MST4): 21%
- inhibition at 1 µM (MST1R): 3%
- inhibition at 1 µM (NEK10): 0%
- inhibition at 1 µM (CSNK1A1L): 0%
- inhibition at 1 µM (GSK3A): 0%
- inhibition at 1 µM (MARK4): 2%
- inhibition at 1 µM (MARK2): 0%
- inhibition at 1 µM (PKN2): 11%
- inhibition at 1 µM (CAMKK2): 0%
- inhibition at 1 µM (PIP5K1C): 33%
- inhibition at 1 µM [1]: 34%
- inhibition at 1 µM (RET(V804M)): 0%
- inhibition at 1 µM (CDKL5): 9%
- inhibition at 1 µM (INSRR): 13%
- inhibition at 1 µM (TAK1): 51%
- inhibition at 1 µM (KIT(A829P)): 61%
- inhibition at 1 µM [2]: 40%
- inhibition at 1 µM (CSNK1G2): 0%
- inhibition at 1 µM (FLT4): 0%
- inhibition at 1 µM [3]: 4%
- inhibition at 1 µM (NEK1): 0%
- inhibition at 1 µM (MST3): 0%
- inhibition at 1 µM [4]: 13%
